{"source": "patent US11920135B2", "about": "“Methods of treating VEGF/VEGFR resistant prostate, renal, or colorectal cancers using combination therapies” (University of Massachusetts, priority 2016, dated 2024)", "key": {"[1]": {"system": "PTENpc-/- prostate tumors", "test": "Pten pc-/- transgenic mouse model of prostate cancer", "assay_type": "in vivo", "conditions": "for number of LSC cells: from 6 weeks of age", "method": "FIG. 4C. Six-week old Pten^pc−/− mice were injected (i.p.) with either mcr84 (10 mg/kg) or EHT1864 (10 mg/kg) twice weekly for three weeks. The GU tract was harvested and total weight was measured. The prostate glands were separated and combined weight of all the lobes was measured. The prostate glands were digested and LSC cells (Lin^−Sca^+CD49f^high) were isolated by FACS.\nFIG. 4D. Six-week old Pten^pc−/− mice were injected (i.p.) with either mcr84 (10 mg/kg) or EHT1864 (10 mg/kg) twice weekly for three weeks. The GU tract was harvested and total weight was measured. The prostate glands were separated and combined weight of all the lobes was measured.\nFIG. 4E. Hematoxylin and eosin (H&E) staining of prostate tumors from Pten^pc−/− mice described in FIG. 4C, and the percentage of prostate glands showing either PIN or well-differentiated adenocarcinoma (AdCa). Scale bar is 100 μm.\nFIG. 4F. TUNEL staining of tumor sections of prostate tumors from Pten^pc−/− mice described in FIG. 4C to detect apoptosis. Scale bar is 100 μm.\nFIG. 7C. Six-week old Pten^pc−/− mice were injected (i.p.) with either mcr84 (10 mg/kg) twice weekly for three weeks. The prostate glands were harvested and immunostained using a myc antibody.\nTo pursue this hypothesis further, PTEN^pc−/− transgenic mice were treated with the Rac1 inhibitor (EHT1864), mcr84 or both at the start of puberty (6 weeks). […] We also compared the impact of mono- and combined therapy on PTEN^pc−/− tumors by calculating the weights of the isolated GU tracts and prostate lobes. […] Moreover, a mass of cells in the lumen of the gland was evident in mice that received the combined treatment. […] These tumor groups were also stained with CD31. Six-week old Ptenpc−/− mice were injected (i.p.) with either mcr84 (10 mg/kg) or EHT1864 (10 mg/kg) twice weekly for three weeks. The prostate glands were harvested and angiogenesis was analyzed using CD31 staining."}, "[2]": {"system": "PC3 and C4-2 sensitive and resistant cells", "test": "Prostatosphere formation", "assay_type": "cell-based", "conditions": "resistant cells (PC3-R); EHT1864 20 μM", "method": "FIG. 2B. Resistant and sensitive populations were analyzed for prostatosphere formation in the presence of either a NRP inhibitory peptide (c-furSEMA) or control peptide (c-SEMA).\nFIG. 3H. PC3-R cells were stimulated with VEGF in the presence or absence of a Rac1 inhibitor (EHT1864; 20 μM) and the effect on prostatosphere formation was measured.\nFIG. 6I. Prostatosphere formation by VEGF^high cells in the presence or absence of EHT1864 was quantified."}, "[3]": {"system": "Lin-Sca+CD49fhigh cells (LSC cells)", "test": "Freshly sorted LSC cells from PTENpc-/- mice: proliferation, prostatosphere formation, qPCR", "assay_type": "cell-based, mouse", "conditions": "Rac1 inhibitor EHT1864 (FIG. 3I)", "method": "FIG. 3I. Freshly sorted Lin^−Sca^+CD49f^high cells (LSC cells) from PTEN^pc−/− mice were used to measure the effect of EHT1864, mcr84 or sunitinib on cell proliferation and prostatosphere formation.\nFIG. 3J. Freshly sorted LSC cells from PTEN^pc−/− mice were treated with EHT1864 (20 μM) and expression of genes associated with stem cells and VEGF signaling was quantified by qPCR.\n(§1) Cell-based assays: The chemosensitivity of prostate cancer cells was determined using a standard 3-(4,5-dimethylthiazol-2-yl)-2,5-diphenyltetrazolium bromide (MTT) cytotoxicity assay. The assay was performed 72 hours after treatment. FACS was used to isolate cells based on their surface expression of CD44, CD24, and the α6 and β4 integrins. The detailed procedure for isolating LSC cells from PTEN^pc−/− mice using lineage markers (CD31, CD45, and Ter119), Sca-1, and CD49f is described, e.g., in Mulholland, D. J., Xin, L., Morim, A., Lawson, D., Witte, O., and Wu, H. 2009. Lin−Sca−1+CD49fhigh stem/progenitors are tumor-initiating cells in the Pten-null prostate cancer model. Cancer Res 69:8555-8562; Lawson, D. A., Xin, L., Lukacs, R. U., Cheng, D., and Witte, O. N. 2007. Isolation and functional characterization of murine prostate stem cells. Proc Natl Acad Sci USA 104:181-186."}, "[4]": {"system": "androgen-independent prostate cancer", "conditions": "bevacizumab monotherapy; cited from earlier work"}, "PC3-R xenograft tumors": {"system": "PC3-R xenograft tumors", "test": "PC3-R xenografts in NSG mice", "assay_type": "in vivo, mouse", "method": "FIGS. 4A-4F. Rac1 inhibition improves sensitivity to VEGF/VEGFR-targeted therapy. FIG. 4A. Tumor volume of mice that were treated with either control IgG or bevacuzimab. PC3-R cells were transfected with Rac1 shRNAs and these cells were implanted in NSG mice. Once tumors reached approximately 100 mm^3 in volume, mice were treated with either control IgG or bevacuzimab (10 mg/kg, intraperitoneally, twice weekly). Tumor volume was measured every third day.\nFIG. 4B. Terminal deoxynucleotidyl transferase dUTP nick end labeling (TUNEL) for control and treated PC3-R xenograft tumors that were harvested. Apoptosis was analyzed using TUNEL staining. Scale bar is 10 μm."}, "NRP1": {"biological_target": "NRP1 (Homo sapiens, UniProt O14786)", "test": "Ability to block VEGF-A binding to NRP", "conditions": "FIG. 9H", "from_the_text": "FIG. 9H. Ability of VEGF antibodies to block VEGF-A binding to NRP."}, "[5]": {"system": "human prostate tumor cells", "test": "Sensitivity to bevacizumab of subpopulations sorted from freshly harvested prostate tumors (cell survival)", "assay_type": "cell-based", "method": "FIG. 1B. Four subpopulations isolated based on expression of CD44 and CD24 were analyzed for their sensitivity to bevacuzimab. The percentage of live cells in three different areas was determined and mean is plotted as cell survival.\nFIG. 1C. Cells from two human freshly harvested prostate tumors were sorted using ITGA6 and ITGB4 antibodies. The four subpopulations isolated based on expression of ITGA6 and ITGB4 were analyzed for their ability to form prostatospheres and sensitivity to bevacuzimab. The percentage of live cells in three different areas was determined and mean is plotted as cell survival.\nIsolation of human prostate tumor cells and laser capture microscopy (LCM): Human prostate tumor tissue was obtained from UMASS Cancer Center Tissue Bank in compliance with the Institutional Review Board of the University of Massachusetts Medical School. The discarded but freshly resected, prostate tumors were digested with collagenase at 37° C. and epithelial cells were isolated using an EpCaM antibody. Frozen sections were microdissected by laser capture microscopy (Arcturus PixCell 2) to obtain pure populations of tumor cells of defined Gleason grades. […] Quantitative real-time PCR was done using the Taqman assay kit (Applied Biosystems). […]"}, "[6]": {"system": "PC3 and C4-2 sensitive and resistant cells", "test": "Colony formation and MTT viability of sensitive and resistant cell lines", "assay_type": "cell-based", "method": "FIG. 1F. PC3 and C4-2 resistant and sensitive cell lines were analyzed for colony formation in the presence or absence of 10 μM Pazopanib.\nFIG. 2C. Resistant and sensitive populations were analyzed for sensitivity to bevacuzimab (1 mg/ml) in the presence of either a NRP inhibitory peptide (c-furSEMA) or control peptide (c-SEMA).\nFIG. 8F. PC3 and C4-2 resistant and sensitive cell lines were cultured in the presence of pazopanib (10 μM) or DMSO for 72 hours and cell viability is analyzed using the MTT assay.\nFIG. 9D. PC3 and C4-2 resistant cells (10^3 cells per 60 mm plate) were cultured in the presence of either c-SEMA or c-furSEMA (1 μM), control IgG or NRP2 inhibitory antibody (1 μg/ml), or their respective controls for 10 days and colonies were stained with crystal violet. Colonies with more than 50 cells were counted.\nas §1\nThe resistant cell lines generated are referred to as PC3-R and C4-2R. As controls, we also exposed these cell lines to control IgG (hIgG) and DMSO and refer to these as sensitive cell lines (PC3-S and C4-2S) (FIGS. 1D-1E)."}, "[7]": {"system": "VEGFhigh and VEGFlow PC3 cells", "test": "Proliferation of VEGFhigh and VEGFlow cells", "assay_type": "cell-based", "conditions": "bevacizumab 1 mg/ml, sunitinib 20 μM, 72 hours", "method": "FIG. 6E. VEGF^high and VEGF^low cells were incubated with bevacuzimab (1 mg/ml) or sunitinib (20 μM) for 72 hours and their proliferation was assayed."}, "ERK": {"system": "ERK", "test": "ERK activation by immunoblotting with phospho-specific antibody", "assay_type": "cell-based", "method": "FIG. 2D. PC3-S cells were serum-deprived overnight and stimulated with VEGF (50 ng/ml) for 30 minutes in the presence or absence of bevacuzimab (5 mg/ml). The activation of ERK was analyzed by immunoblotting using a phospho-specific antibody.\nFIG. 2F. Sensitive and resistant C4-2 cell lines were serum-deprived overnight and stimulated with VEGF (50 ng/ml) for 30 minutes in the presence of bevacuzimab (5 mg/ml). The activation of ERK and AKT was analyzed by immunoblotting using phospho-specific antibodies.\nFIG. 2G. Sensitive and resistant PC3 cell lines were serum-deprived overnight and stimulated with VEGF (50 ng/ml) for 30 minutes in the presence of bevacuzimab (5 mg/ml). The activation of ERK and AKT was analyzed by immunoblotting using phospho-specific antibodies.\nFIG. 6F. VEGF^high and VEGF^low cells were serum-deprived overnight and stimulated with VEGF (50 ng/ml) for 30 minutes in the presence or absence of bevacuzimab (5 mg/ml). The activation of ERK was analyzed by immunoblotting using a phospho-specific antibody."}, "[8]": {"conditions": "10 mg/kg i.p. twice weekly for three weeks"}, "[9]": {"conditions": "Rac1-depleted (shRNA) PC3-R xenografts plus bevacizumab"}}}
{"compound": "O=c1cc(CN2CCOCC2)occ1OCCCCCSc1ccnc2cc(C(F)(F)F)ccc12", "note": "[EHT1864]", "values": [{"measurement": "angiogenesis (CD31 staining)", "setting": "[1]; [8]", "value": "No significant difference in staining"}, {"measurement": "number of LSC cells", "setting": "[1]; [8]", "value": "reduced the number of LSC cells significantly"}, {"measurement": "number of LSC cells", "setting": "[1]; 10 mg/kg i.p. twice weekly for three weeks, listed as RACi", "value": "significantly reduced"}, {"measurement": "pathological examination of prostate tumors (PIN or adenocarcinoma)", "setting": "[1]; H&E staining", "value": "progressed to well-differentiated adenocarcinomas"}, {"measurement": "number of prostatospheres", "setting": "[2]", "value": "reduced the number of prostatospheres"}, {"measurement": "sensitivity of LSC cells to mcr84 and sunitinib", "setting": "[3]", "value": "increased the sensitivity of LSC cells"}]}
{"compound": "bevacizumab", "values": [{"measurement": "patients exhibiting a decline in PSA", "setting": "[4]", "value": 27, "unit": "%"}, {"measurement": "response based on RECIST criteria", "setting": "[4]", "value": "no response noted"}, {"measurement": "apoptosis in residual tumors (TUNEL)", "setting": "PC3-R xenograft tumors; [9]", "value": "contained mostly apoptotic cells"}, {"measurement": "tumor volume", "setting": "PC3-R xenograft tumors; [9]", "value": "significantly better decrease in tumor volume"}, {"measurement": "tumor growth", "setting": "PC3-R xenograft tumors; control PC3-R xenografts, bevacizumab alone, 10 mg/kg i.p. twice weekly", "value": "no significant effect on tumor growth"}, {"measurement": "blocking of the binding of VEGF-A to NRP1", "setting": "NRP1", "value": "Neither mcr84 nor bevacizumab blocked"}, {"measurement": "resistance to bevacizumab treatment (cell survival)", "setting": "[5]; CD44+CD24- (P1) subpopulation versus other subpopulations", "value": "the only subpopulation that exhibited resistance"}, {"measurement": "resistance to bevacizumab treatment (cell survival)", "setting": "[5]; high CD49f population compared to low CD49f population", "value": "exhibited resistance"}, {"measurement": "sensitivity of resistant cells after down-regulation of P-Rex1", "setting": "[6]; PC3-R cells with P-Rex1 shRNA, bevacizumab 1 mg/ml, sunitinib 20 μM", "value": "increased their sensitivity"}, {"measurement": "sensitivity to bevacizumab after down-regulation of NRP2 or NRP1", "setting": "[6]; PC3-R cells, shRNA", "value": "increased sensitivity"}, {"measurement": "ability of the resistant cell lines to form colonies or survive", "setting": "[6]; PC3-R, C4-2R, bevacizumab 1 mg/ml, sunitinib 20 μM, 10 days colonies, 72 hours MTT", "value": "Neither bevacizumab nor sunitinib inhibited"}, {"measurement": "resistance to inhibition of viability and prostatosphere formation after expression of constitutively active MEK", "setting": "[6]; sensitive cells", "value": "increased their resistance"}, {"measurement": "resistance to bevacizumab after ectopic expression of NRP2", "setting": "[6]; sensitive cells, in the presence of VEGF", "value": "induces resistance"}, {"measurement": "resistance of VEGFhigh cells compared to VEGFlow cells (proliferation)", "setting": "[7]", "value": "more resistant"}, {"measurement": "basal ERK activation", "setting": "ERK; VEGFhigh cells", "value": "resistant"}, {"measurement": "VEGF-induced ERK activation", "setting": "ERK; VEGFlow cells", "value": "inhibited"}, {"measurement": "ERK activation", "setting": "ERK; resistant cells, bevacizumab 5 mg/ml", "value": "unable to inhibit ERK activation"}]}
